Source: ChEMBL document CHEMBL1201862, “PubChem BioAssay data set” (2004)
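1) Cells in 96-well plates. 2) Compound, 48 h, 5 concentrations. 3) Linear interpolation between surrounding doses. 4) Unreached endpoint = highest concentration. At the GI50, growth is halved.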 The source made the active and inactive calls. Rule as the data show it: active = GI50 up to about 1.1 µM and inactive = higher.

What was measured:
Assay in all cases: NCI anticancer screen, dose series, 48 h
HOP-62 = tested on: HOP-62
SF-268 = tested on: SF-268
RXF 393 = tested on: RXF 393
NCI/ADR-RES = tested on: NCI/ADR-RES
SK-MEL-5 = tested on: SK-MEL-5
EKVX = tested on: EKVX
CAKI-1 = tested on: CAKI-1
OVCAR-8 = tested on: OVCAR-8
TK-10 = tested on: TK-10
BT-549 = tested on: BT-549
DU-145 = tested on: DU-145
SNB-19 = tested on: SNB-19
SF-295 = tested on: SF-295
HCT-15 = tested on: HCT-15
COLO 205 = tested on: COLO 205
UACC-62 = tested on: UACC-62
HT-29 = tested on: HT-29
CCRF-CEM = tested on: CCRF-CEM
IGROV-1 = tested on: IGROV-1
SNB-75 = tested on: SNB-75

| SMILES | GI50 (HOP-62) | GI50 (SF-268) | GI50 (RXF 393) | GI50 (NCI/ADR-RES) | GI50 (SK-MEL-5) | GI50 (EKVX) | GI50 (CAKI-1) | GI50 (OVCAR-8) | GI50 (TK-10) | GI50 (BT-549) | GI50 (DU-145) | GI50 (SNB-19) | GI50 (SF-295) | GI50 (HCT-15) | GI50 (COLO 205) | GI50 (UACC-62) | GI50 (HT-29) | GI50 (CCRF-CEM) | GI50 (IGROV-1) | GI50 (SNB-75) |
| --- | --- | --- | --- | --- | --- | --- | --- | --- | --- | --- | --- | --- | --- | --- | --- | --- | --- | --- | --- | --- |
| NS(=O)(=O)c1nnc(NC(=O)C23CC4CC(CC(C4)C2)C3)s1 | > 100 µM (inactive) | 55.7 µM (inactive) | 61.7 µM (inactive) | > 100 µM (inactive) | 96.2 µM (inactive) | > 100 µM (inactive) | > 100 µM (inactive) | > 100 µM (inactive) | > 100 µM (inactive) | 82.2 µM (inactive) | > 100 µM (inactive) | > 100 µM (inactive) | > 100 µM (inactive) | > 100 µM | > 100 µM (inactive) | > 100 µM (inactive) |  |  |  |  |
| CC1CC(NN)=Nc2ccccc2N1 (centres undefined) | > 100 µM (inactive) | > 100 µM (inactive) |  | > 100 µM (inactive) | > 100 µM (inactive) | > 100 µM (inactive) | > 100 µM (inactive) | > 100 µM (inactive) | > 100 µM (inactive) | > 100 µM (inactive) | > 100 µM (inactive) | > 100 µM (inactive) | > 100 µM (inactive) | > 100 µM | > 100 µM (inactive) | > 100 µM (inactive) | > 100 µM (inactive) | 40.3 µM (inactive) | > 100 µM (inactive) |  |
| COC1=C(OC)C(=O)C(Cc2c(-c3ccccc3)nc3sc(Cl)cn23)=C(C)C1=O | 19.5 µM (inactive) | 18.8 µM (inactive) | 17.1 µM (inactive) | 17.9 µM (inactive) | 15.2 µM (inactive) | 20.7 µM (inactive) | 21 µM (inactive) | 15.2 µM (inactive) | 20 µM (inactive) | 15.7 µM (inactive) | 20 µM (inactive) | 18.2 µM (inactive) | 17 µM (inactive) | 14.5 µM | 18.7 µM (inactive) | 11.9 µM (inactive) | 20.1 µM (inactive) | 13.7 µM (inactive) | 14.9 µM (inactive) |  |
| Cc1nc2ccc(F)cc2c2c1CCN2c1ccccc1 | 32.9 µM (inactive) | 23.3 µM (inactive) | 15 µM (inactive) | 18.3 µM (inactive) | 12.9 µM (inactive) | 22.4 µM (inactive) |  | 20.9 µM (inactive) | 22.9 µM (inactive) | 23.4 µM (inactive) | 31.4 µM (inactive) | 32.8 µM (inactive) | 11.7 µM (inactive) | 25.9 µM | 11.9 µM (inactive) | 12 µM (inactive) | 8.51 µM (inactive) | 21.5 µM (inactive) | 18.6 µM (inactive) | 12.8 µM (inactive) |
| O=C1c2ccccc2C(=O)c2c1c1cc(O)ccc1n2Cc1ccc(Cl)cc1Cl | 2.61 µM (inactive) | 12.9 µM (inactive) | 2.14 µM (inactive) | 3.08 µM (inactive) | 17.2 µM (inactive) |  | 3.9 µM (inactive) | 4.57 µM (inactive) | 9.29 µM (inactive) | 18.5 µM (inactive) | 8.13 µM (inactive) | 13.4 µM (inactive) | 7.5 µM (inactive) | 5.66 µM | 15.1 µM (inactive) | 7.66 µM (inactive) | 16.6 µM (inactive) | 4.12 µM (inactive) | 6.98 µM (inactive) |  |
| CCC1(CC)C(=O)OC(=O)C1(CC)CC | > 100 µM (inactive) | > 100 µM (inactive) |  | > 100 µM (inactive) | > 100 µM (inactive) | > 100 µM (inactive) | > 100 µM (inactive) | > 100 µM (inactive) | > 100 µM (inactive) | > 100 µM (inactive) | > 100 µM (inactive) | > 100 µM (inactive) | > 100 µM (inactive) | > 100 µM | > 100 µM (inactive) | > 100 µM (inactive) | > 100 µM (inactive) | > 100 µM (inactive) | > 100 µM (inactive) | > 100 µM (inactive) |
| COc1ccc(OC)c2sc(N3C(=O)/C(=C/c4ccc(N(C)C)cc4)N=C3c3ccccc3)nc12 | > 100 µM (inactive) | > 100 µM (inactive) |  | > 100 µM (inactive) | 39.2 µM (inactive) | > 100 µM (inactive) | > 100 µM (inactive) | 78.5 µM (inactive) | > 100 µM (inactive) | 97.1 µM (inactive) | > 100 µM (inactive) | > 100 µM (inactive) | > 100 µM (inactive) | 59.2 µM | > 100 µM (inactive) | 28.3 µM (inactive) | 61.8 µM (inactive) | 6.04 µM (inactive) | > 100 µM (inactive) | 80.5 µM (inactive) |
| CCc1[nH]c(=O)c2oc3cc4ccccc4cc3c2c1C(=O)O |  | > 10 µM (inactive) | > 10 µM (inactive) | > 10 µM (inactive) |  | > 10 µM (inactive) |  | > 10 µM (inactive) | > 10 µM (inactive) | > 10 µM (inactive) | 3.91 µM (inactive) | > 10 µM (inactive) | > 10 µM (inactive) | > 10 µM |  |  | > 10 µM (inactive) |  | 0.001 µM (active) | > 10 µM (inactive) |
| CC1CC(C(=O)OC2OC(COC3OC(CO)C(OC4OC(C)C(O)C(O)C4O)C(O)C3O)C(O)C(O)C2O)C2CCC3(C)C(=CCC4(C)C3CCC3C(C)(CO)C(O)C(O)CC34C)C2C1C (centres undefined) | 17.7 µM (inactive) | 19 µM (inactive) |  | > 100 µM (inactive) | 18.7 µM (inactive) | > 10 µM (inactive) | > 100 µM (inactive) | 17.4 µM (inactive) | > 100 µM (inactive) | 17.7 µM (inactive) | 33.5 µM (inactive) | 17.4 µM (inactive) | 28.8 µM (inactive) | > 100 µM | 17.3 µM (inactive) | 17.7 µM (inactive) | 21.8 µM (inactive) | 21.9 µM (inactive) | 16.9 µM (inactive) | 16.9 µM (inactive) |
| CCOC(=O)C1(C#N)C(C#N)(C#N)C1(C#N)C#N | > 100 µM (inactive) | > 100 µM (inactive) | > 100 µM (inactive) | > 100 µM (inactive) | > 100 µM (inactive) | > 100 µM (inactive) | > 100 µM (inactive) | > 100 µM (inactive) | > 100 µM (inactive) | > 100 µM (inactive) | > 100 µM (inactive) | > 100 µM (inactive) | > 100 µM (inactive) | > 100 µM | > 100 µM (inactive) | > 100 µM (inactive) | > 100 µM (inactive) | > 100 µM (inactive) | > 100 µM (inactive) |  |
| OCc1ccc2c(c1)CC1(Cc3ccc(/C=N/O)cc3C1)C2 (centres undefined) | 5.45 µM (inactive) | 13.7 µM (inactive) |  | 3.32 µM (inactive) | 1.34 µM (inactive) | 6.73 µM (inactive) | 7.8 µM (inactive) | 4.45 µM (inactive) | 13.4 µM (inactive) | 10.4 µM (inactive) | 5.24 µM (inactive) | 5.35 µM (inactive) | 2.43 µM (inactive) | 1.16 µM | 3.1 µM (inactive) | 3.24 µM (inactive) | 1.89 µM (inactive) | 1.96 µM (inactive) | 2.84 µM (inactive) | 2.88 µM (inactive) |
| Clc1ccc(/C=C/c2nc(-c3ccc(Cl)cc3)cn3c2nc2ccccc23)cc1 | > 100 µM (inactive) | > 100 µM (inactive) | > 100 µM (inactive) | > 100 µM (inactive) | > 100 µM (inactive) | > 100 µM (inactive) |  |  | > 100 µM (inactive) | > 100 µM (inactive) | > 100 µM (inactive) | > 100 µM (inactive) |  | > 100 µM | > 100 µM (inactive) | > 100 µM (inactive) | > 100 µM (inactive) | > 100 µM (inactive) | 55.7 µM (inactive) |  |
| O=S1(=O)N=C(SCc2c[nH]c3ccccc23)N(c2ccccc2)c2ccncc21 | > 100 µM (inactive) | 50.9 µM (inactive) |  | > 100 µM (inactive) | > 100 µM (inactive) | > 100 µM (inactive) | 67.5 µM (inactive) | > 100 µM (inactive) | 35.6 µM (inactive) | 59 µM (inactive) | 35.2 µM (inactive) | > 100 µM (inactive) | > 100 µM (inactive) | > 100 µM | > 100 µM (inactive) | > 100 µM (inactive) | > 100 µM (inactive) | 41.4 µM (inactive) |  | 21.5 µM (inactive) |
| CCC[C@H](O)[C@@H](CNc1cc(NC(C)=O)nc(NC(C)=O)n1)N(Cc1ccccc1)Cc1ccccc1 | 15.2 µM (inactive) |  |  | 19.3 µM (inactive) | 20.9 µM (inactive) | 12.1 µM (inactive) | 18.2 µM (inactive) | 13.7 µM (inactive) | 20.3 µM (inactive) | 16.1 µM (inactive) | 61.9 µM (inactive) | 39.3 µM (inactive) | 6.44 µM (inactive) | 31.7 µM | 26.3 µM (inactive) | 18.3 µM (inactive) |  | > 10 µM (inactive) | 12.8 µM (inactive) | 13.2 µM (inactive) |
| CC[C@@]1(O)CC(OC2CC(N3CCOCC3)C(O)C(C)O2)c2c(O)c3c(c(O)c2[C@H]1O)C(=O)c1cccc(O)c1C3=O (some centres undefined) | 0.0679 µM (active) | 0.122 µM (active) | 0.196 µM (active) | 0.145 µM (active) | 0.0966 µM (active) | 0.318 µM (active) |  | 0.0904 µM (active) | 0.452 µM (active) | 0.0508 µM (active) | 0.084 µM (active) | 0.127 µM (active) | 0.0575 µM (active) | 0.0573 µM | 0.0847 µM (active) | 0.0667 µM (active) | 0.0902 µM (active) | 0.0379 µM (active) | 0.0959 µM (active) | 0.139 µM (active) |
